{"source": "patent US20140011826A1", "about": "“METABOTROPIC GLUTAMATE RECEPTOR GROUP I ANTAGONISTS FOR TREATMENT OF ABNORMAL UNION OF TISSUE” (priority 2011, published 2014)", "system": "post-operative intra abdominal adhesions", "experiment": "Post-operative intra abdominal adhesion formation in rat after laparotomy and musculoperitoneal incision", "type": "in vivo", "procedure": "Reduction in the occurrence of post-operative intra abdominal adhesions in rat by treatment with the mGluRgIa compound 2-methyl-6-(phenylethynyl)-pyridine (MPEP) at a dose of 12.5 mg/kg 12 male Sprague-Dawleys rats (Charles River Laboratories International, Sutzfeld, Germany), weighing between 250 to 300 g at the initiation of the procedure, were kept at a number of two individuals in one cage of type H3, lined with wood chips and housed in standardized conditions, at a constant room temperature (22° C.) with 12-hour light and dark cycles. All animals were provided free access to standard rodent chow, tap water, nesting material and libitum. All surgical procedures were performed under aseptic conditions in a dedicated surgical animal operating room. The animals were anesthetized using continuous inhalation isoflurane 1.5% to 4% in oxygen, numbered and randomly assigned to two groups of 6 individuals each: one treatment group and one vehicle group. After shaving and disinfection of the abdomen, a 50 mm long midline laparotomy was performed to gain access to the abdominal cavity. A 18 mm long sharp incision was then made through the musculoperitoneal tissue on the left lateral abdominal wall below the epigastric vessel parallel with the midline incision. The injury site was immediately closed with four single sutures places equidistantly using 5-0 polypropylene threat (Prolene; Ethicon, Johnson & Johnson, Somerville, N.J., USA). Just before closing the abdomen, the animals received either mGluRgIa (MPEP 45.35 mM in vehicle) at a dose of 12.5 mg MPEP/kg (treatment group), or vehicle (0.9% NaC1, 10 w % dimethylacetatamide, ˜50 mM hydrochloride, vehicle group), by injecting the solution into the abdominal cavity. The midline laparotomy was then closed in two layers continuous suture using 5-0 polypropylene for the abdomen and 4-0 for the skin. […] Formation of adhesions between the injury site and other uninjured structures within the abdominal cavity was macroscopically evaluated and quantified using the grading ‘0’ for absence of adhesions or ‘1’ for formed adhesions.", "data": [{"smiles": "Cc1cccc(C#Cc2ccccc2)n1", "note": "[MPEP, 2-methyl-6-(phenylethynyl)-pyridine]", "values": [{"measurement": "animals that had developed adhesions", "setting": "male Sprague-Dawley rats, 12.5 mg MPEP/kg injected into the abdominal cavity just before closing, evaluated macroscopically after one week, vehicle group 4 of 6", "result": "1 of the 6 animals"}, {"measurement": "adhesions at the scar of the incision (picture of open abdomen)", "setting": "treated rat no. 3 of Example 1, Pic. 1, 18 mm incision on left lateral abdominal wall", "result": "no visible adhesions"}, {"measurement": "adhesion grading per animal (six animals, one digit each)", "setting": "treatment group, 12.5 mg MPEP/kg into the abdominal cavity, one week after surgery, vehicle group=111100", "result": 100000}]}]}
